The text below walks through data of patent US20250197359A1, “CANNABINOID RECEPTOR MODULATING COMPOUNDS” (The U.S.A., as Represented by the Secretary, Department of …, priority 2022, published 2025).

Each structure is given as a SMILES string. pIC50, pKi: −log10 of the molar value.

The target in assay [1] is iNOS (Mus musculus, UniProt P29477). In words: Inducible NOS biochemical assay. The conditions noted are these: for % Response (Inducible NOS): Mouse, 10 μM, criteria ≥ ±50%, preliminary data. The text has this:
Biochemical assay results are presented as the percent inhibition of specific binding or activity (iNOS, CAMP, beta arrestin).

Assay [2] addresses CB1 (UniProt P21554). Put plainly: CB1 radioligand binding assay. More on the design: species or system human. As to conditions: read-out: Ki (CB1). In a few lines:
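Radioligand binding to human CB1 stably expressed in CHO cells and to mouse brain membrane CB1 gave binding constants. For selected compounds, antagonism of CP55940-induced CB1 activation was measured in MPXNomad-CB1 HEK293 cells via cAMPNomad (cAMP) and ArresNomad (β-arrestin) fluorescent biosensors.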

The target of assay [3] is T1, Brain/CB1 (Mus musculus, UniProt P47746).
T1 construct: from tissue; host or cells: mouse brain membranes
T1 sequence (P47746 whole entry): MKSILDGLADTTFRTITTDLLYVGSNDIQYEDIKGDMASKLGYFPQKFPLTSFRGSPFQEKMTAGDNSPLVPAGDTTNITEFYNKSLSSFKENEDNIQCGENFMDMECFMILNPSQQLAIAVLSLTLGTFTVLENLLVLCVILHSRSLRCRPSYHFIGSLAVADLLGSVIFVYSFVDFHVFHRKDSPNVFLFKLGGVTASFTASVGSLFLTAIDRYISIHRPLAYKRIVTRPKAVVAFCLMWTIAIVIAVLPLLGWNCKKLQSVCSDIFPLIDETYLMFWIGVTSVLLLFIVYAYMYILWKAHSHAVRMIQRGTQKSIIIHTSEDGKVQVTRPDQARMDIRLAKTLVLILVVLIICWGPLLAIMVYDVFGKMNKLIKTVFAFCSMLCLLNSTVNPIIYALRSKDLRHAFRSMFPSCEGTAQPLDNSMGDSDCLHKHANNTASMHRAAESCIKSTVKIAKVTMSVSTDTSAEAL
In words: Functional GTPγS binding, Brain/CB1. It counts as biochemical. The text has this: Furthermore, the intermediates urea compounds 8a-m were chlorinated with phosphorus oxychloride in the presence of DIPEA base to form imidoyl chloride intermediate and reacted with acetamidine hydrochloride/methyl carbamimidothioate iodide/methyl carbamimidoselenoate iodide and other amines to furnish the target compounds (10a-34b) (Scheme 2, FIG. 2, Scheme 5, FIG. 5). The urea derivatives were converted to the thiourea derivatives 9a-9d by employing sodium thiosulfate. Compound 8a-b, 8e-f were converted to corresponding thiourea by employing sodium thiosulfate dissolved in water dioxane mixture and the reaction was heated to 85° C. for 2 h. […] The binding constant for the synthesized compounds were determined by using radioligand binding assay in mouse brain membranes as well as the target compounds were evaluated in vitro at the human CB1 receptor, stably expressed into Chinese hamster ovary (CHO) cells as well as mouse brain membrane CB1.
A general note: GTPγS is a poorly hydrolysed GTP analogue; its binding reports G protein activation.

Take `C/C(N)=N\C(=N\S(=O)(=O)c1ccc(C(F)(F)F)cc1)N1CCC(c2ccccc2)C(c2ccc(Cl)cc2)=N1` (stereo not drawn) [drawing 16]: the “% Response (Inducible NOS)” value in assay [1] worked out at 64%.
Regarding `C/C(N)=N\C(=N\S(=O)(=O)c1ccc(Cl)cc1)N1CCC(c2ccccc2)C(c2ccc(Cl)cc2)=N1` (stereo not drawn) [Compound 10a, (Z)—N—((E)-1-aminoethylidene)-3-(4-chlorophenyl)-N′-((4-chlorophenyl)sulfonyl)-4-phenyl-5,6-dihydropyridazine-1 (4H)-carboximidamide], the “iNOS inhibition % Response” value in assay [1] was 39%. Moreover, the negative logarithm of the Ki (pKi) – broadly, −log10 of the Ki, conventionally taken in molar units – in assay [2] is 7.12. Moreover, the pIC50 – broadly, the IC50 on a negative log10 scale, so that one unit is a factor of ten – in assay [3] was 6.86.
The like results for `CS/C(N)=N\C(=N\S(=O)(=O)c1ccc(C(F)(F)F)cc1)N1CCC(c2ccccc2)C(c2ccc(Cl)cc2)=N1` (stereo not drawn) [Compound 11b, methyl (Z)—N′—((Z)-(3-(4-chlorophenyl)-4-phenyl-5,6-dihydropyridazin-1 (4H)-yl)(((4-(trifluoromethyl)phenyl)sulfonyl)imino)methyl)carbamimidothioate] were, in that order, 56%, 7.06 and 6.90.
As for `CS/C(N)=N\C(=N\S(=O)(=O)c1ccc(C(F)(F)F)cc1)N1CCC(c2ccccc2)C(c2ccc(Cl)cc2)=N1` (stereo not drawn) [drawing 17], in assay [1], the “% Response (Inducible NOS)” value is given as 56%.
Regarding `CC(C)/C(N)=N\C(=N\S(=O)(=O)c1ccc(C(F)(F)F)cc1)N1CCC(c2ccccc2)C(c2ccc(Cl)cc2)=N1` (stereo not drawn) [Compound 10m, (Z)—N—((E)-1-amino-2-methylpropylidene)-3-(4-chlorophenyl)-4-phenyl-N′-((4-(trifluoromethyl)phenyl)sulfonyl)-5,6-dihydropyridazine-1 (4H)-carboximidamide], the “iNOS inhibition % Response” value in assay [1] came out at 55%. Besides, the negative-log Ki (pKi) in assay [2] is 7.64. This compound had a negative logarithm of the IC50 (pIC50) in assay [3] of 6.82.
For `O=S(=O)(/N=C(/N=C1\CCCCN1)N1CCC(c2ccccc2)C(c2ccc(Cl)cc2)=N1)c1ccc(C(F)(F)F)cc1` (stereo not drawn) [Compound 16, (Z)-3-(4-chlorophenyl)-4-phenyl-N—((E)-piperidin-2-ylidene)-N′-((4-(trifluoromethyl)phenyl)sulfonyl)-5,6-dihydropyridazine-1 (4H)-carboximidamide], in that order: 51%, 7.59 and 6.98.
Turning to `C[Se]/C(N)=N\C(=N\S(=O)(=O)c1ccc(C(F)(F)F)cc1)N1CCC(c2ccccc2)C(c2ccc(Cl)cc2)=N1` (stereo not drawn) [drawing 18], the “% Response (Inducible NOS)” value in assay [1] was 64%.
Regarding `C/C(N)=N\C(=N\S(=O)(=O)c1ccc(C#N)cc1)N1CCC(c2ccccc2)C(c2ccc(Cl)cc2)=N1` (stereo not drawn) [Compound 10e, (Z)—N—((E)-1-aminoethylidene)-3-(4-chlorophenyl)-N′-((4-cyanophenyl)sulfonyl)-4-phenyl-5,6-dihydropyridazine-1 (4H)-carboximidamide], in assay [1], the “iNOS inhibition % Response” value came to 43%. Also, the pKi in assay [2] was 7.11. Besides, the pIC50 in assay [3] is 6.47.
Regarding `N/C(=N/C(=N/S(=O)(=O)c1ccc(C(F)(F)F)cc1)N1CCC(c2ccccc2)C(c2ccc(Cl)cc2)=N1)c1ccccc1Cl` (stereo not drawn) [Compound 10s, (Z)—N—((E)-amino (2-chlorophenyl)methylene)-3-(4-chlorophenyl)-4-phenyl-N′-((4-(trifluoromethyl)phenyl)sulfonyl)-5,6-dihydropyridazine-1 (4H)-carboximidamide], in assay [1], the “iNOS inhibition % Response” value came to 24%. Besides, in assay [2], the pKi is 7.69. The compound also showed a negative-log IC50 (pIC50) in assay [3] of 7.72.
With `CCS/C(N)=N\C(=N/S(=O)(=O)c1ccc(C(F)(F)F)cc1)N1CCC(c2ccccc2)C(c2ccc(Cl)cc2)=N1` (stereo not drawn) [Compound 11i, ethyl (Z)—N′—((E)-(3-(4-chlorophenyl)-4-phenyl-5,6-dihydropyridazin-1 (4H)-yl)(((4-(trifluoromethyl)phenyl)sulfonyl)imino)methyl)carbamimidothioate], the “iNOS inhibition % Response” value in assay [1] is recorded as 66%. For the same compound, the pKi in assay [2] is 7.00. Further, in assay [3], the pIC50 is 6.19.
On to `N/C(=N\C(=N\S(=O)(=O)c1ccc(C(F)(F)F)cc1)N1CCC(c2ccccc2)C(c2ccc(Cl)cc2)=N1)C1CC1` (stereo not drawn) [Compound 10n, (Z)—N—((Z)-amino (cyclopropyl)methylene)-3-(4-chlorophenyl)-4-phenyl-N′-((4-(trifluoromethyl)phenyl)sulfonyl)-5,6-dihydropyridazine-1 (4H)-carboximidamide], for which, in assay [1], the “iNOS inhibition % Response” value was determined as 55%. The pKi in assay [2] is 7.36. The compound further showed a pIC50 in assay [3] of 6.68.
As for `C[Se]/C(N)=N\C(=N\S(=O)(=O)c1ccc(C(F)(F)F)cc1)N1CCC(c2ccccc2)C(c2ccc(Cl)cc2)=N1` (stereo not drawn) [Compound 12b, methyl (Z)—N′—((Z)-(3-(4-chlorophenyl)-4-phenyl-5,6-dihydropyridazin-1 (4H)-yl)(((4-(trifluoromethyl)phenyl)sulfonyl)imino)methyl)carbamimidoselenoate], the “iNOS inhibition % Response” value in assay [1] was determined as 64%. Also, the pKi in assay [2] is 6.94.
As to `C/C(N)=N\C(=N\S(=O)(=O)c1ccc(OC(F)(F)F)cc1)N1CCC(c2ccccc2)C(c2ccc(Cl)cc2)=N1` (stereo not drawn) [Compound 10d, (Z)—N—((E)-1-aminoethylidene)-3-(4-chlorophenyl)-4-phenyl-N′-((4-(trifluoromethoxy)phenyl)sulfonyl)-5,6-dihydropyridazine-1 (4H)-carboximidamide], the “iNOS inhibition % Response” value in assay [1] came to 55%. Besides, the pKi in assay [2] is 7.25. Besides, the pIC50 in assay [3] is 6.98.
`NC(=O)C(Cc1ccccc1)N/C(=N/S(=O)(=O)c1ccc(C(F)(F)F)cc1)N1CCC(c2ccccc2)C(c2ccc(Cl)cc2)=N1` (single isomer, unassigned) [Compound 33b, (Z)-2-(3-(4-chlorophenyl)-4-phenyl-N′-((4-(trifluoromethyl)phenyl)sulfonyl)-1,4,5,6-tetrahydropyridazine-1-carboximidamido)-3-phenylpropanamide]: the pKi in assay [2] was 8.21. Moreover, the pIC50 in assay [3] is 7.92.
For `C/C(N)=N\C(=N\S(=O)(=O)c1ccc2ccccc2c1)N1CCC(c2ccccc2)C(c2ccc(Cl)cc2)=N1` (stereo not drawn) [Compound 10f, (Z)—N—((E)-1-aminoethylidene)-3-(4-chlorophenyl)-N′-(naphthalen-2-ylsulfonyl)-4-phenyl-5,6-dihydropyridazine-1 (4H)-carboximidamide], in that order: 7.50 and 6.88.
The like results for `NC(=O)C(Cc1ccccc1)N/C(=N/S(=O)(=O)c1ccc(C(F)(F)F)cc1)N1CCC(c2ccccc2)C(c2ccc(Cl)cc2)=N1` (single isomer, unassigned) [Compound 33a, (Z)-2-(3-(4-chlorophenyl)-4-phenyl-N′-((4-(trifluoromethyl)phenyl)sulfonyl)-1,4,5,6-tetrahydropyridazine-1-carboximidamido)-3-phenylpropanamide] were, in that order, 7.18 and 6.37.
For `N/C(=N\C(=N\S(=O)(=O)c1ccc(C(F)(F)F)cc1)N1CCC(c2ccccc2)C(c2ccc(Cl)cc2)=N1)c1ccccn1` (stereo not drawn) [Compound 10v, (Z)—N—((Z)-amino (pyridin-2-yl)methylene)-3-(4-chlorophenyl)-4-phenyl-N′-((4-(trifluoromethyl)phenyl)sulfonyl)-5,6-dihydropyridazine-1 (4H)-carboximidamide], in that order: 8.15 and 7.59.
As to `NC(=O)CN/C(=N/S(=O)(=O)c1ccc(C(F)(F)F)cc1)N1CCC(c2ccccc2)C(c2ccc(Cl)cc2)=N1` (stereo not drawn) [Compound 24, (Z)-2-(3-(4-chlorophenyl)-4-phenyl-N′-((4-(trifluoromethyl)phenyl)sulfonyl)-1,4,5,6-tetrahydropyridazine-1-carboximidamido)acetamide], in assay [2], the pKi was 8.00. Moreover, the pIC50 in assay [3] was 7.48.
For `CC(C)(C)/C(N)=N/C(=N/S(=O)(=O)c1ccc(C(F)(F)F)cc1)N1CCC(c2ccccc2)C(c2ccc(F)cc2)=N1` (stereo not drawn) [Compound 10zb, (Z)—N—((Z)-1-amino-2,2-dimethylpropylidene)-3-(4-fluorophenyl)-4-phenyl-N′-((4-(trifluoromethyl)phenyl)sulfonyl)-5,6-dihydropyridazine-1 (4H)-carboximidamide], the pKi in assay [2] was 7.12. Moreover, in assay [3], the pIC50 was 6.32.
For `N/C(=N\C(=N\S(=O)(=O)c1ccc(C(F)(F)F)cc1)N1CCC(c2ccccc2)C(c2ccc(F)cc2)=N1)c1ccccn1` (stereo not drawn) [Compound 10zf, (Z)—N—((Z)-amino (pyridin-2-yl)methylene)-3-(4-fluorophenyl)-4-phenyl-N′-((4-(trifluoromethyl)phenyl)sulfonyl)-5,6-dihydropyridazine-1 (4H)-carboximidamide], in that order: 7.38 and 6.68.
As for `N/C(=N\C(=N\S(=O)(=O)c1ccc(C(F)(F)F)cc1)N1CCC(c2ccccc2)C(c2ccc(Cl)cc2)=N1)c1ccccc1` (stereo not drawn) [Compound 10r, (Z)—N—((Z)-amino (phenyl)methylene)-3-(4-chlorophenyl)-4-phenyl-N′-((4-(trifluoromethyl)phenyl)sulfonyl)-5,6-dihydropyridazine-1 (4H)-carboximidamide], in assay [2], the negative-log Ki (pKi) was 7.48. In addition, in assay [3], the negative logarithm of the IC50 (pIC50) is 6.71.
